In test [1] the test system is naturally aged C57BL6J mice. Nature of the test: Osteoclast marker mRNA (Ctsk, Ocstamp, Oscar, Rank, Trap) in femur of naturally aged mice, Example 21-14, Table 29. Conditions: left femur, untreated aged = 100%. Type of test: in vivo, mouse. On the procedure:
(§1) 22-month-old female C57BL6J mice (KRIBB Laboratory Animal Resource Center) were acclimated to the experimental environment for one week, after which the aged mice were randomly assigned to experimental and control groups. Eight-week-old, non-aged mice served as controls. LX-403 was mixed in a 10% ethanol solution of PEG400 and administered orally at a concentration of 25 mg/kg daily for 21 days, or administered to the skin, joints, or eyes at a concentration of 1 μM. LX-1801 was mixed in distilled water with 4% DMSO, 30% PEG300, and 5% Tween80 and administered to the skin, joints, or eyes at a concentration of 0.4 μM daily for 21 days. LX-2001 was mixed in PBS and administered to the skin, joints, or eyes at a concentration of […] daily for 21 days. LX-2002 was mixed in distilled water with 4% DMSO, 30% PEG300, and 5% Tween80 and administered to the skin, joints, or eyes at a concentration of 2 μM daily for 21 days. […] LX-2005 was mixed in distilled water with 4% DMSO, 30% PEG300, and 5% Tween80 and administered to the skin, joints, or eyes at a concentration of 90 μM daily for 21 days. LX-2007 was mixed in distilled water with 4% DMSO, 30% PEG300, and 5% Tween80 and administered to the skin, joints, or eyes at a concentration of 90 μM daily for 21 days. […] LX-3002 was mixed in distilled water with 4% DMSO, 30% PEG300, and 5% Tween80 and administered orally at a concentration of 10 mg/kg daily for 21 days. […] LX-5411 was mixed in 5% PBS and administered orally at a concentration of 10 mg/kg daily for 21 days or administered to the skin, joints, or eyes at a concentration of 3 μM. LX-5701 was mixed in PBS and administered orally at a concentration of 360 mg/kg daily for 21 days. LX-6807 was mixed in saline and administered intraperitoneally at a concentration of 1 mg/kg daily for 21 days. LX-2101 or LX-2102 was mixed in PBS solution with 5% DMSO and administered intraperitoneally at a concentration of 20 mg/kg or 10 mg/kg, respectively, daily for 21 days. The control group received only the solution in the same volume. After the end of drug administration, the methods described in each example below were performed.
Senile osteoporosis is a metabolic bone disease characterized by decreased bone density and a high fracture risk. It occurs in both men and women with aging. The accumulation of senescent cells is known to contribute to osteoporosis by increasing bone resorption by osteoclasts and decreasing bone formation by osteoblasts through the senescence-associated secretory factor (SASP). RNA was extracted from the left femur of mice as described in Example 7-2 WO2023-085787 A1, and qRT-PCR was performed using the synthesized cDNA. […] The amount of each factor after aging was induced was calculated as 100% and compared with the amount of each factor after treatment with the test compound.

For test [2], the system named is bleomycin-induced pulmonary fibrosis C57BL6J mice. Nature of the test: Bleomycin pulmonary fibrosis in mice (p16, IL6, Col1a1 mRNA, alveoli size), Example 24-1, Table 47. As to conditions: for Airspace enlargement: average size of alveoli, untreated 39.8 (±0.4); for Col1a1 mRNA / IL6 mRNA / p16 mRNA: lung, daily for 21 days, untreated 100%. Format: in vivo, mouse. On the procedure: Eight-week-old male C57BL6J mice (KRIBB Laboratory Animal Resource Center) were acclimated to the experimental environment for one week. They were then administered the anticancer drug bleomyxin via intratracheal inhalation at a concentration of 2.5 mg/kg, inducing aging for more than 10 days. The aging-induced mice were randomly assigned to experimental and control groups. […] LX-3002 was mixed in distilled water with 4% DMSO, 30% PEG300, 5% tween80 and administered orally at a concentration of 10 mg/kg daily for 21 days. LX-5701 was mixed in PBS and administered orally at a concentration of 360 mg/kg daily for 21 days. LX-6807 was mixed in saline and administered intraperitoneally at a concentration of 1 mg/kg daily for 21 days. The control group received only the solution in the same volume. After the end of drug administration, mice were sacrificed in the same manner as in Example 7-2 of WO2023-085787 A1, RNA was extracted from lung tissue, and qRT-PCR (quantitative real-time PCR) was performed and analyzed using the synthesized cDNA. […] The amount of mRNA after aging was calculated as 100%, and the results after treatment with the test compound were compared. Furthermore, paraffin sections were stained with hematoxylin/eosin (H/E), and the size of alveoli was measured under an optical microscope to assess the degree of lung function impairment due to pulmonary fibrosis.

In test [3] the test system is obesity-induced aged C57BL6J mice. Nature of the test: Fatty liver (Oil Red O, AST, ALT) in obesity-aged mice, Example 23-5, Table 45. Type of test: in vivo, mouse. Conditions: daily for 21 days, untreated 100%; for ALT / AST: serum; for Oil Red O: staining area, liver.
Method: After acclimation to the experimental environment for one week, the mice were randomly assigned to experimental and control groups. […] The control group received only the solution in the same volume. After the end of drug administration, the methods described in each example below were performed.
The subject of the next test is senescent A549 cells. Nature of the test: Viability of senescent A549 cells (CellTiter-Glo), Example 18, Table 15. As to conditions: Homo sapiens, A549, read-out: Survival (%).
The test system of test [4] is naturally aged C57BL6J mice. Nature of the test: p16 mRNA in organs of naturally aged mice, Example 21-2, Table 18. Type of test: in vivo, mouse. As to conditions: 22-month-old naturally aged mice, untreated aged = 100%. On the procedure:
as §1
Mice were sacrificed, and RNA was extracted from each organ tissue using the same method as in Example 7-2 of WO2023-085787 A1. qRT-PCR was performed with the synthesized cDNA. […] The amount of p16 mRNA after aging was calculated as 100% and compared with the amount of p16 mRNA after test compound treatment.

Method for senescent A549 cells: Senescence-induced cancer cells treated with doxorubicin were treated with the test compound at designated concentrations, and cell viability was measured using the CellTiter-Glo Luminescent Cell Viability Assay (Promega).

`Cc1cccc([C@H](C)c2cnc[nH]2)c1C` [LX-6807, Dexmedetomidine]: in test [1], the “Ctsk mRNA (%)” value is listed as 42 (±2.7) %, the “Ocstamp mRNA (%)” value is recorded as 53 (±5.1) %, the “Oscar mRNA (%)” value was 37 (±2.0) % and the “Rank mRNA (%)” value is on record as 57 (±3.9) %. For the same compound, in test [1], the “Trap mRNA (%)” value was 48 (±2.1) %. Also, in test [2], the Airspace enlargement is listed as 33.8 (±3.6) μm, the “Col1a1 mRNA” value was 56 (±3.6) %, the “IL6 mRNA” value is 48 (±2.4) % and the “p16 mRNA” value was 54 (±1.9) %. In test [3], the ALT is 70 (±6.4) %, the AST is 66 (±4.4) % and the “Oil Red O” value is recorded as 53 (±3.9) %. For the same compound, in the test on senescent A549 cells, the viability at 1.1 µM came to 94.1%, the viability at 10 µM was determined as 76.5% and the viability at 30 µM was 6.6%.
As for `C#CC(=O)N1[C@@H](CCCC)Cc2cc(OC)ccc2[C@@H]1c1ccc(NC23CC4CC(CC(C4)C2)C3)cc1` [LX-5411], in the test on senescent A549 cells, the viability at 1.1 µM is 75.4% and the viability at 10 µM amounted to 5.3%.
Consider `CC1(C)CC[C@]2(NC(=O)C(C)(F)F)CC[C@]3(C)[C@H](C(=O)C=C4[C@@]5(C)C=C(C#N)C(=O)C(C)(C)[C@@H]5CC[C@]43C)[C@@H]2C1` [LX-2101, Omaveloxolone], for which, in test [1], the “Ctsk mRNA (%)” value is 61 (±12.1) %, the “Ocstamp mRNA (%)” value was 69 (±10.3) %, the “Oscar mRNA (%)” value is 79 (±5.6) % and the “Rank mRNA (%)” value is recorded as 75 (±2.7) %. Also, the “Trap mRNA (%)” value in test [1] is 50 (±14.2) %. Further, in test [4], the “p16 mRNA (%), Brain” value is listed as 62%; the “p16 mRNA (%), Eye” value was found to be 62%; the “p16 mRNA (%), Femur” value is given as 61%; the “p16 mRNA (%), Heart” value is on record as 78%. In test [4], the “p16 mRNA (%), Kidney” value is recorded as 46%; the “p16 mRNA (%), Knee joint” value amounted to 75%; the “p16 mRNA (%), Liver” value came out at 62%; the “p16 mRNA (%), Lung” value amounted to 54%. For the same compound, in test [4], the “p16 mRNA (%), Muscle” value was 82%; the “p16 mRNA (%), Skin” value came to 80%; the “p16 mRNA (%), eWAT” value was determined as 42%.
With `O=C1C2CCN(CC2)C1CNC(=O)C(F)(F)F` (stereo not drawn) [LX-5701], in test [1], the “Ctsk mRNA (%)” value is 57 (±13.0) %, the “Ocstamp mRNA (%)” value is recorded as 70 (±6.7) %, the “Oscar mRNA (%)” value was 72 (±7.2) % and the “Rank mRNA (%)” value is recorded as 68 (±10.4) %. For the same compound, the “Trap mRNA (%)” value in test [1] was 63 (±18.4) %. Also, in test [2], the Airspace enlargement is listed as 30.1 (±2.7) μm, the “Col1a1 mRNA” value is given as 52 (±13.9) %, the “IL6 mRNA” value is given as 59 (±13.2) % and the “p16 mRNA” value is 65 (±7.1) %. Moreover, in test [4], the “p16 mRNA (%), Brain” value was 71%; the “p16 mRNA (%), Eye” value is listed as 63%; the “p16 mRNA (%), Femur” value is 70%; the “p16 mRNA (%), Heart” value came out at 72%. In test [4], the “p16 mRNA (%), Kidney” value turned out to be 42%; the “p16 mRNA (%), Knee joint” value was 66%; the “p16 mRNA (%), Liver” value is on record as 34%; the “p16 mRNA (%), Lung” value was determined as 58%. Moreover, in test [4], the “p16 mRNA (%), Muscle” value was determined as 64%; the “p16 mRNA (%), Skin” value is reported as 75%; the “p16 mRNA (%), eWAT” value came to 51%. In test [3], the ALT is recorded as 64 (±7.9) %, the AST is reported as 69 (±8.8) % and the “Oil Red O” value is 55 (±17.2) %. Also, in the test on senescent A549 cells, the viability at 1.1 µM stood at 82.3%, the viability at 10 µM worked out at 43.8% and the viability at 30 µM is 16.2%.
For the compound Tocofersolan [LX-3001], in test [1], the “Ctsk mRNA (%)” value was 67 (±7.2) %, the “Ocstamp mRNA (%)” value is recorded as 75 (±3.3) %, the “Oscar mRNA (%)” value is recorded as 61 (±4.7) % and the “Rank mRNA (%)” value is recorded as 56 (±6.3) %. Further, the “Trap mRNA (%)” value in test [1] is on record as 78 (±6.8) %. Moreover, in test [2], the Airspace enlargement is reported as 36.2 (±2.2) μm, the “Col1a1 mRNA” value is given as 64 (±3.9) %, the “IL6 mRNA” value is 51 (±3.6) % and the “p16 mRNA” value is recorded as 65 (±3.8) %. In test [3], the ALT was 71 (±1.3) % and the “Oil Red O” value is 83 (±4.0) %.
Consider `COC(=O)[C@H]1Cc2c([nH]c3ccccc23)[C@H](c2ccc(S(C)(=O)=O)cc2)N1C(=O)CCl` [LX-5401, methyl (1S,3R)-2-(2-chloroacetyl)-1-(4-(methylsulfonyl)phenyl)-2,3,4,9-tetrahydro-1H-pyrido[3,4-b]indole-3-carboxylate], for which, in the test with senescent A549 cells, the viability at 1.1 µM was 92.7%, the viability at 10 µM is 43.8% and the viability at 30 µM was 1.9%.
On to `COC(=O)[C@]12CCC(C)(C)C[C@H]1[C@H]1C(=O)C=C3[C@@]4(C)C=C(C#N)C(=O)C(C)(C)[C@@H]4CC[C@@]3(C)[C@]1(C)CC2` [LX-2102, Bardoxolone methyl], for which, in test [4], the “p16 mRNA (%), Brain” value came to 85%; the “p16 mRNA (%), Eye” value was found to be 72%; the “p16 mRNA (%), Femur” value is on record as 64%; the “p16 mRNA (%), Heart” value was 81%. Further, in test [4], the “p16 mRNA (%), Kidney” value came out at 53%; the “p16 mRNA (%), Knee joint” value is recorded as 64%; the “p16 mRNA (%), Liver” value turned out to be 58%; the “p16 mRNA (%), Lung” value came to 71%. In test [4], the “p16 mRNA (%), Muscle” value is on record as 75%; the “p16 mRNA (%), Skin” value is 77%; the “p16 mRNA (%), eWAT” value was determined as 39%.
As for `CCCC\C=C/C=C/C=C\CCCCCCCC(=O)O` [LX-2707, Punicic acid], in test [1], the “Ctsk mRNA (%)” value is reported as 64 (±8.6) %, the “Ocstamp mRNA (%)” value is given as 73 (±3.2) %, the “Oscar mRNA (%)” value is reported as 54 (±3.4) % and the “Rank mRNA (%)” value was 67 (±3.4) %. The “Trap mRNA (%)” value in test [1] is given as 51 (±5.2) %. Further, in test [2], the Airspace enlargement is given as 35.4 (±1.8) μm, the “Col1a1 mRNA” value was 70 (±6.5) %, the “IL6 mRNA” value is listed as 38 (±4.1) % and the “p16 mRNA” value is on record as 43 (±4.2) %. In addition, in test [3], the ALT was 64 (±3.1) %, the AST is 75 (±2.1) % and the “Oil Red O” value is recorded as 67 (±1.7) %.

(Values after patent publication US20260306460A1, “COMPOSITION FOR REMOVING AND INHIBITING SENESCENT CELLS, AND USES THEREOF” (LIFECEUTIX CO., LTD., priority 2023, published 2026).)
